Experimental findings from PMC3235152, “Heteromeric Anopheline Odorant Receptors Exhibit Distinct Channel Properties” (PLoS ONE, 2011) are described below.

The target in test [1] is T1, AgOrco (Anopheles gambiae, UniProt Q7QCC7).
T1 construct: gene Orco; Orco homomer, stoichiometry unknown
T1 sequence (Q7QCC7 1-478): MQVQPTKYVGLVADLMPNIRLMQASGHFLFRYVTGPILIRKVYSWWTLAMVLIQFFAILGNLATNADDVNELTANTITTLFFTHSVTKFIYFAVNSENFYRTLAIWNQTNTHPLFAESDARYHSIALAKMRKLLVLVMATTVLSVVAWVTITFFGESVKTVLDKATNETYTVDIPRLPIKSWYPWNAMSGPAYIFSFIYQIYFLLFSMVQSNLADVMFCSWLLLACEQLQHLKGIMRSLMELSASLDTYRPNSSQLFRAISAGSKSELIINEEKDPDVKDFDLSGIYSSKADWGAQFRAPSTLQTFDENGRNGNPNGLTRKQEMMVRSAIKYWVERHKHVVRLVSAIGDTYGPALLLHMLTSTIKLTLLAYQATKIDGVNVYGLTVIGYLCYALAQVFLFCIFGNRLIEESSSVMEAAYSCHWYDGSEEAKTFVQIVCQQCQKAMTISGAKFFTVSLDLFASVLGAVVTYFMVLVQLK
Nature of the test: Ca++ imaging concentration-response in HEK cells. The test is classed as cell-based.

In test [2] the test system is T2, AgOrco + AgOr65.
T2 construct: gene Orco; heteromer of unknown stoichiometry; VUAA1 acts on Orco, odorant on Or65, ruthenium red at the pore
Nature of the test: Ca++ imaging concentration-response in HEK cells. The test is classed as cell-based, Anopheles gambiae. The following applies: Orco agonist; AgOrco homomers may coexist.

For test [3], the target named is T3, AgOrco + AgOr8 (Anopheles gambiae, UniProt Q7PUT5+Q7QCC7).
T3 construct: gene Orco; heteromer of unknown stoichiometry; VUAA1 acts on Orco, odorant on Or8, ruthenium red at the pore
T3 sequence (Q7QCC7 1-478): T1 sequence (Q7QCC7 1-478)
T3 sequence (Q7PUT5 1-399): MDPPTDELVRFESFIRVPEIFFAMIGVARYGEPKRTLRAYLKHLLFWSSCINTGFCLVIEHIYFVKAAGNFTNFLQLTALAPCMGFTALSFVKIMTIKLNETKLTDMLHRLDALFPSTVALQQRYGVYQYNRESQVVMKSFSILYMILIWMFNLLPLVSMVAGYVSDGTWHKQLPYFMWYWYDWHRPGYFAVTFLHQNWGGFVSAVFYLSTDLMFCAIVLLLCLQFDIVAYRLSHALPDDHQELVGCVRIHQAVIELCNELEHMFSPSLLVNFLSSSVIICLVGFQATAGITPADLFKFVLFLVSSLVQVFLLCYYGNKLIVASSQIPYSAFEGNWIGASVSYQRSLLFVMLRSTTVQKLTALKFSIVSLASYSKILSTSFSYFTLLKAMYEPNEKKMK
Nature of the test: Ca++ imaging concentration-response in HEK cells. The test is classed as cell-based.

Test [4] deals with T4, AgOrco + AgOr10 (Anopheles gambiae, UniProt B5U0U7+Q7QCC7).
T4 construct: gene Orco; heteromer of unknown stoichiometry; VUAA1 acts on Orco, odorant on Or10, ruthenium red at the pore
T4 sequence (Q7QCC7 1-478): T1 sequence (Q7QCC7 1-478)
T4 sequence (B5U0U7 1-375): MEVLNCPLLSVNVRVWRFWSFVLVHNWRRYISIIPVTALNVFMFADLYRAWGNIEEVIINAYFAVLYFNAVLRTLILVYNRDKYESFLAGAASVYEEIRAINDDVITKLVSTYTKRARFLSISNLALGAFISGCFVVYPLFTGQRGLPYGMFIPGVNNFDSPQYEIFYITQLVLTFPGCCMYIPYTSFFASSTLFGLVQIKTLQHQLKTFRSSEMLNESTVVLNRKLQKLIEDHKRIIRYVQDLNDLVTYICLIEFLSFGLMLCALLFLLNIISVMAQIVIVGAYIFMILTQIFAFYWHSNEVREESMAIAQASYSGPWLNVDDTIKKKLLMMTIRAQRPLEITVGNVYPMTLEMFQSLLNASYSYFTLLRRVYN
Nature of the test: Ca++ imaging concentration-response in HEK cells. The test is classed as cell-based.

Test [5] deals with T5, AgOrco + AgOr28.
T5 construct: gene Orco; heteromer of unknown stoichiometry; VUAA1 acts on Orco, odorant on Or28, ruthenium red at the pore
The test can be described thus: Ca++ imaging concentration-response in HEK cells. In kind it is cell-based, Anopheles gambiae. To be noted: Orco agonist; AgOrco homomers may coexist.

Test [6] concerns the target T4, AgOrco + AgOr10. Nature of the test: whole-cell patch clamp, block of agonist-induced current. The test is classed as cell-based. To be noted: 100 µM benzaldehyde as agonist; -60 mV; pH 7.35; 20–22°C; pore blocker, noncompetitive with VUAA1. (In general: The patch-clamp technique gives a direct electrical read-out from membranes.)

With `CCc1ccc(NC(=O)CSc2nnc(-c3cccnc3)n2CC)cc1` [VUAA1, N-(4-ethylphenyl)-2-((4-ethyl-5-(3-pyridinyl)-4H-1,2,4-triazol-3-yl)thio)acetamide], the EC50 in test [1] is 49 µM; in test [2], −4.42±0.02 logM; in test [3], 13.2 µM; in test [4], 12.3 µM; in test [5], −4.47±0.02 logM.

For the compound `N.N.N.N.N.N.N.N.N.N.N.N.N.N.[Cl-].[Cl-].[Cl-].[Cl-].[Cl-].[Cl-].[O-2].[O-2].[Ru+3].[Ru+3].[Ru+4]` [ruthenium red], the “% current reduction at 100 μM” value in test [6] turned out to be 78.5±1.4%.
